Data published in publication PMC12396409, “Screening and hit evaluation of a microbial metabolite library against the pathogenic Plasmodium falciparum and Toxoplasma gondii parasites” (International Journal for Parasitology: Drugs and Drug …, 2025).
Like-named read-outs stand apart in the source and are kept apart here. *1 amine or outer side, *2 acyl side, *3 side chain or, on linkers, in order; H or OH if unused. Where a SMILES comes first, the peptide text is derived from it. Bridges are numbered along the chain shown (N, C = ends). [ ]: non-standard residue; d: D form. hTyr(3S-OH,4S-OH,3'-OSO3H) = N[C@H](C(=O)O)[C@H](O)[C@@H](O)c1ccc(O)c(OS(=O)(=O)O)c1; Orn(4R-OH,5R-OH) = O=C([C@H](C[C@@H](O)[C@@H](O)N[*:3])N[*:1])[*:2]; Pro(3S-OH,4S-Me) = C[C@H]1CN[C@H](C(=O)O)[C@H]1O; Gln(3R-OH) = NC(=O)C[C@@H](O)[C@H](N)C(=O)O; Hyp = O=C(O)[C@@H]1C[C@@H](O)CN1

How the values were obtained:
[1] = system: P. falciparum 3D7 parasites; assay: P. falciparum growth inhibition assay, 1-cycle (72 h treatment), SYBR DNA staining (library screen at 2 μg/mL and dose-response); type: cell-based, Plasmodium falciparum; settings: % growth; for activity at 2 µg/mL: Plasmodium falciparum
[2] = system: P. falciparum 3D7 parasites; assay: P. falciparum growth inhibition assay, 2-cycle (120 h treatment), delayed-death screen and dose-response; type: cell-based, Plasmodium falciparum; settings: % growth; for activity at 2 µg/mL: Plasmodium falciparum
[3] = system: T. gondii RH strain (RH-Tub-eYFP) tachyzoites; assay: microbe, parasite or virus in culture; type: cell-based, Toxoplasma gondii; settings: 72 h, 72 h, % growth; for percent parasite growth at 2 µg/mL: Toxoplasma gondii
[4] = 3D7, 72 h, library screen at 2 μg/mL, 72 h, replicate 1, read-out: Pf_72h_%Growth_Rep1
[5] = 3D7, 72 h, library screen at 2 μg/mL, 72 h, replicate 2, read-out: Pf_72h_%Growth_Rep2
[6] = 3D7, 120 h, library screen at 2 μg/mL, 120 h, replicate 1, read-out: Pf_120h_%Growth_Rep1
[7] = 3D7, 120 h, library screen at 2 μg/mL, 120 h, replicate 2, read-out: Pf_120h_%Growth_Rep2
[8] = library screen at 2 μg/mL, replicate 1, read-out: Tg_72h_%Growth_Rep1
[9] = library screen at 2 μg/mL, replicate 2, read-out: Tg_72h_%Growth_Rep2

`CO[C@H]1C[C@@H]2CC[C@@H](C)[C@@](O)(O2)C(=O)C(=O)N2CCCC[C@H]2C(=O)O[C@H]([C@H](C)C[C@@H]2CC[C@@H](OP(C)(C)=O)[C@H](OC)C2)CC(=O)[C@H](C)/C=C(\C)[C@@H](O)[C@@H](OC)C(=O)[C@H](C)C[C@H](C)/C=C/C=C/C=C/1C` [Ridaforolimus] gave an activity at 2 µg/mL ([1]; 3D7, 72 h, P. falciparum, 72 h, parasite screen 2 μg/mL, replicate 1, read-out: Pf_72h_%Growth_Rep1) of 68.5%, an activity at 2 µg/mL ([1]; 3D7, 72 h, P. falciparum, 72 h, parasite screen 2 μg/mL, replicate 2, read-out: Pf_72h_%Growth_Rep2) of 69.8% and an activity at 2 µg/mL ([2]; 3D7, 120 h, P. falciparum, 120 h, parasite screen 2 μg/mL, replicate 1, read-out: Pf_120h_%Growth_Rep1) of 75.1%. For the same compound, the activity at 2 µg/mL ([2]; 3D7, 120 h, P. falciparum, 120 h, parasite screen 2 μg/mL, replicate 2, read-out: Pf_120h_%Growth_Rep2) was 55.3%, the percent parasite growth at 2 µg/mL ([3]; T. gondii, parasite screen 2 μg/mL, replicate 1, read-out: Tg_72h_%Growth_Rep1) was 128% and the percent parasite growth at 2 µg/mL ([3]; T. gondii, parasite screen 2 μg/mL, replicate 2, read-out: Tg_72h_%Growth_Rep2) was 84.7%.
Compound `CC1(C)OC2CC(=O)OCC23C1CC(=O)C1(C)C3CCC2(C)C(c3ccoc3)OC(=O)C3OC321` (stereo not drawn) [BIA-L1755] has a Pf_72h_%Growth_Rep1 ([1]; P. falciparum 3D7, 72 h, library screen at 2 μg/mL, replicate 1) of 83.85%, a Pf_72h_%Growth_Rep2 ([1]; P. falciparum 3D7, 72 h, library screen at 2 μg/mL, replicate 2) of 113.59% and a Pf_120h_%Growth_Rep1 ([2]; P. falciparum 3D7, 120 h, library screen at 2 μg/mL, replicate 1) of 93.20%. It also gave a Pf_120h_%Growth_Rep2 ([2]; P. falciparum 3D7, 120 h, library screen at 2 μg/mL, replicate 2) of 110.15%, a Tg_72h_%Growth_Rep1 ([3]; T. gondii RH, library screen at 2 μg/mL, replicate 1) of 135.94% and a Tg_72h_%Growth_Rep2 ([3]; T. gondii RH, library screen at 2 μg/mL, replicate 2) of 85.64%.
In the case of `C[C@@H](O)[C@@H]1NC(=O)[C@@H](N)C[C@@H](O)[C@@H](O)NC(=O)[C@@H]2[C@@H](O)[C@@H](C)CN2C(=O)[C@H]([C@H](O)CC(N)=O)NC(=O)[C@H]([C@H](O)[C@@H](O)c2ccc(O)c(OS(=O)(=O)O)c2)NC(=O)[C@@H]2C[C@@H](O)CN2C1=O` [FR 179642] (H-[Orn(4R-OH,5R-OH)]T[Hyp][hTyr(3S-OH,4S-OH,3'-OSO3H)][Gln(3R-OH)][Pro(3S-OH,4S-Me)]; lactam 1-C), the Pf_72h_%Growth_Rep1 ([1]; library screen at 2 μg/mL, 72 h, replicate 1) is reported as 86.67%, the Pf_72h_%Growth_Rep2 ([1]; library screen at 2 μg/mL, 72 h, replicate 2) is reported as 86.11% and the Pf_120h_%Growth_Rep1 ([2]; library screen at 2 μg/mL, 120 h, replicate 1) is reported as 98.57%. For the same compound, the Pf_120h_%Growth_Rep2 ([2]; library screen at 2 μg/mL, 120 h, replicate 2) was 95.35%, the Tg_72h_%Growth_Rep1 ([3]; library screen at 2 μg/mL, replicate 1) was 133.49% and the Tg_72h_%Growth_Rep2 ([3]; library screen at 2 μg/mL, replicate 2) was 86.61%.
With `CC1=C[C@H]2O[C@@H]3[C@H](O)[C@@H](O)[C@](C)([C@@]2(CO)[C@H](O)C1=O)[C@]31CO1` [BIA-N1920] the Pf_72h_%Growth_Rep1 ([1]; P. falciparum 3D7, 72 h, parasite screen at 2 μg/mL, replicate 1) was 4.51%, the Pf_72h_%Growth_Rep2 ([1]; P. falciparum 3D7, 72 h, parasite screen at 2 μg/mL, replicate 2) was -2.70% and the Pf_120h_%Growth_Rep1 ([2]; P. falciparum 3D7, 120 h, parasite screen at 2 μg/mL, replicate 1) was 18.13%. For the same compound, the Pf_120h_%Growth_Rep2 ([2]; P. falciparum 3D7, 120 h, parasite screen at 2 μg/mL, replicate 2) was 5.74%, the Tg_72h_%Growth_Rep1 ([3]; T. gondii, parasite screen at 2 μg/mL, replicate 1) was 0.21% and the Tg_72h_%Growth_Rep2 ([3]; T. gondii, parasite screen at 2 μg/mL, replicate 2) was 0.91%.
`CCCCc1ccc(C(=O)O)nc1` [Fusaric acid] gave an activity at 2 µg/mL [1, 4] of 78%, an activity at 2 µg/mL [1, 5] of 31.2% and an activity at 2 µg/mL [2, 6] of 80.2%. The activity at 2 µg/mL [2, 7] was 85%, the percent parasite growth at 2 µg/mL [3, 8] was 118% and the percent parasite growth at 2 µg/mL [3, 9] was 83.8%.
For `CC(C)C[C@H](NC(=O)[C@@H](O)[C@H](N)Cc1ccccc1)C(=O)O` [Bestatin], the activity at 2 µg/mL ([1]; 3D7, library screen at 2 μg/mL, 72 h, replicate 1, read-out: Pf_72h_%Growth_Rep1) was 10.9%, the activity at 2 µg/mL ([1]; 3D7, library screen at 2 μg/mL, 72 h, replicate 2, read-out: Pf_72h_%Growth_Rep2) was 3.89% and the activity at 2 µg/mL ([2]; 3D7, library screen at 2 μg/mL, 120 h, replicate 1, read-out: Pf_120h_%Growth_Rep1) was 3.72%. It also gave an activity at 2 µg/mL ([2]; 3D7, library screen at 2 μg/mL, 120 h, replicate 2, read-out: Pf_120h_%Growth_Rep2) of 8.03%, a percent parasite growth at 2 µg/mL [3, 8] of 89.8% and a percent parasite growth at 2 µg/mL [3, 9] of 102%.
In the case of `CC[C@@H]1C[C@H]2CC[C@H](O2)[C@H](C)C(=O)O[C@@H](C)C[C@@H]2CC[C@@H](O2)[C@@H](C)C(=O)O[C@H](CC)C[C@H]2CC[C@H](O2)[C@H](C)C(=O)O[C@@H](C)C[C@@H]2CC[C@@H](O2)[C@@H](C)C(=O)O1` [Dinactin], the activity at 2 µg/mL [1, 4] is reported as 3.66%, the activity at 2 µg/mL [1, 5] is reported as -1.84% and the activity at 2 µg/mL [2, 6] is reported as 15.7%. It also gave an activity at 2 µg/mL [2, 7] of 11%, a percent parasite growth at 2 µg/mL [3, 8] of 5.15% and a percent parasite growth at 2 µg/mL [3, 9] of 2.32%.
